# From patent publication US20250345436A1 (Hyloris Developments SA, priority 2023, published 2025)
# Tests used:
# [1] = physchem; format: physicochemical
# Description: Atomoxetine HCl (API, active pharmaceutical ingredient) has good aqueous solubility. […] Human saliva has a pH normal range of 6.2-7.6 with 6.7 being the average pH. […] In the oral cavity, the pH is maintained near neutrality (6.7-7.3) by the saliva.
# It is also evident that the solubilized form of atomoxetine is going to have a direct impact on taste buds thereby causing immediate bitterness upon drinking the oral solution.
# [2] = cited from earlier work
"solubility ([1]; aqueous buffer, Absolute Solubility) [mg/mL]","solubility ([1]; pH 4.5, aqueous buffer, Absolute Solubility) [mg/mL]","solubility ([1]; pH 6.8, aqueous buffer, Absolute Solubility) [mg/mL]","solubility ([1]; pH 6.8, aqueous buffer, solubility) [mg/mL]","solubility ([1]; pH 7.4, aqueous buffer, Absolute Solubility) [mg/mL]","solubility ([1]; simulated gastric fluid, Absolute Solubility) [mg/mL]","solubility ([1]; water, Absolute Solubility) [mg/mL]",Compound,size of self-assembled nanosized aggregates ([2]; in water above CMC),critical micellar concentration (CMC) ([2]; in water) [wt %]
12.2,33.9,3.53,2.7 to 3.5,2.75,13.1,24.1,"CNCC[C@@H](Oc1ccccc1C)c1ccccc1.Cl [Atomoxetine HCl, (-)-N-Methyl-3-phenyl-3-(o-tolyloxy)-propylamine hydrochloride]",–,–
–,–,–,–,–,–,–,D-α-Tocopherol Polyethylene Glycol Succinate [Vitamin E TPGS],about 13 nm,0.02
